Measurements: patent US20250332178A1, “METHODS OF TREATING MYCOBACTERIAL INFECTIONS USING TETRACYCLINE COMPOUNDS” (priority 2018, published 2025)
In brackets after ≈: the same amount, converted by molar mass. Where two headings read alike, the source gives them in different places.

Tests used:
[1] = system: Mycobacterium abscessus; assay: MIC by broth microdilution in CAMHB, clinical isolates; type: cell-based; details: Mycobacteroides abscessus; for MIC: read-out: MIC
Procedure: (§1) A total of 24 clinical isolates of Mycobacterium abscessus, 22 clinical isolates of Mycobacterium chelonae and 20 clinical isolates of Mycobacterium fortuitum were tested in the study. The study also used the antibiotics tigecycline, doxycycline and amikacin for comparison purposes. […] Amikacin was dissolved in DMSO prior to freezing at −20° C. For susceptibility testing, stock solutions of antibiotic compounds were serially diluted in 50 μL of cation adjusted Mueller-Hinton broth (CAMHB) in polystryrene 96-well round-bottom microtiter plates. To each well, 50 μL of the appropriate mycobacterial cell suspension was added to yield a final concentration of about 1×10^5 CFU/mL. The inoculum used for each isolate was measured by titration in saline with Tween 80 and plating on MH agar. The Mycobacterium abscessus and Mycobacterium fortuitum titer plates were incubated at 37° C. in ambient air for 3-4 days and 5-7 days, respectively. The Mycobacterium chelonae titer plates were incubated at 30° C. in ambient air for 3-5 days. Each isolate was tested at least in duplicate. The MIC was defined as the lowest concentration of antimicrobial agent yielding no visible turbidity.

[2] = system: Mycobacterium fortuitum; assay: as above; type: cell-based; details: Mycolicibacterium fortuitum; for MIC: read-out: MIC
Procedure: as §1

[3] = system: Mycobacterium chelonae; assay: as above; type: cell-based; details: 22 clinical isolates; read-out: MIC50
Procedure: as §1

[4] = system: slow-growing NTM isolates; assay: MIC (CLSI broth dilution), all slow-growing NTM isolates; type: cell-based, nontuberculous mycobacteria; details: small number of SGM isolates
[5] = system: rapid-growing mycobacteria (RGM) isolates; assay: MIC (CLSI broth dilution), all RGM isolates; type: cell-based, nontuberculous mycobacteria; details: RGM clinical isolates, all species

CN(C)c1cc(CNCC(C)(C)C)c(O)c2c1C[C@H]1C[C@H]3C(N(C)C)C(O)=C(C(N)=O)C(=O)[C@@]3(O)C(O)=C1C2=O (stereo partly drawn) [Omadacycline, (4aS,5aR,12aS)-4,7-bis(dimethylamino)-3,10,12,12a-tetrahydroxy-9-((neopentylamino)methyl)-1,11-dioxo-1,4,4a,5,5a,6,11,12a-octahydrotetracene-2-carboxamide]
MIC ([1]; isolate No. 1, BB2): 1 µg/mL (≈ 1.8 µM) | MIC ([1]; isolate No. 2, BB4): 4 µg/mL (≈ 7.19 µM) | MIC ([1]; isolate No. 3, 5922): 0.125 µg/mL (≈ 0.225 µM) | MIC ([1]; isolate No. 4, BB3): 0.06 µg/mL (≈ 0.108 µM) | MIC ([1]; isolate No. 5, BB6): 0.06 µg/mL (≈ 0.108 µM) | MIC ([1]; isolate No. 6, 5908): 1 µg/mL (≈ 1.8 µM) | MIC ([1]; isolate No. 7, BB7): 2 µg/mL (≈ 3.59 µM) | MIC ([1]; isolate No. 8, 6031): 0.25 µg/mL (≈ 0.449 µM) | MIC ([1]; isolate No. 9, 5785): 0.25 µg/mL (≈ 0.449 µM) | MIC ([1]; isolate No. 10, BB8): 1 µg/mL (≈ 1.8 µM) | MIC ([1]; isolate No. 11, 6111): 1 µg/mL (≈ 1.8 µM) | MIC ([1]; isolate No. 12, 6005): 1 µg/mL (≈ 1.8 µM) | MIC ([1]; isolate No. 13, 5605): 1 µg/mL (≈ 1.8 µM) | MIC ([1]; isolate No. 14, 5931): 1 µg/mL (≈ 1.8 µM) | MIC ([1]; isolate No. 15, BB1): 2 µg/mL (≈ 3.59 µM) | MIC ([1]; isolate No. 16, BB5): 2 µg/mL (≈ 3.59 µM) | MIC ([1]; isolate No. 17, 5812): 2 µg/mL (≈ 3.59 µM) | MIC ([1]; isolate No. 18, 5901): 1 µg/mL (≈ 1.8 µM) | MIC ([1]; isolate No. 19, 5960): 8 µg/mL (≈ 14.4 µM) | MIC ([1]; isolate No. 20, 6142): 1 µg/mL (≈ 1.8 µM) | MIC ([1]; isolate No. 21, 5922): 0.5 µg/mL (≈ 0.898 µM) | MIC ([1]; isolate No. 22, LT 949): 1 µg/mL (≈ 1.8 µM) | MIC ([1]; isolate No. 23, 6025): 1 µg/mL (≈ 1.8 µM) | MIC ([1]; isolate No. 24, 6153): 2 µg/mL (≈ 3.59 µM) | MIC50 ([1]; 24 clinical isolates (tigecycline: subset N=14), read-out: MIC50): 1 µg/mL (≈ 1.8 µM) | MIC90 ([1]; 24 clinical isolates (tigecycline: subset N=14), read-out: MIC90): 2 µg/mL (≈ 3.59 µM) | MIC ([2]; isolate No. 1, 3349): 0.25 µg/mL (≈ 0.449 µM) | MIC ([2]; isolate No. 2, 3499): 0.03 µg/mL (≈ 0.0539 µM) | MIC ([2]; isolate No. 3, 2797): 0.125 µg/mL (≈ 0.225 µM) | MIC ([2]; isolate No. 4, 32): 0.25 µg/mL (≈ 0.449 µM) | MIC ([2]; isolate No. 5, 33): 0.125 µg/mL (≈ 0.225 µM) | MIC ([2]; isolate No. 6, 3489): 0.125 µg/mL (≈ 0.225 µM) | MIC ([2]; isolate No. 7, 3491): 0.125 µg/mL (≈ 0.225 µM) | MIC ([2]; isolate No. 8, 54): 0.06 µg/mL (≈ 0.108 µM) | MIC ([2]; isolate No. 9, 38): 0.125 µg/mL (≈ 0.225 µM) | MIC ([2]; isolate No. 10, 36): 0.125 µg/mL (≈ 0.225 µM) | MIC ([2]; isolate No. 11, 3480): 0.25 µg/mL (≈ 0.449 µM) | MIC ([2]; isolate No. 12, 3126): 0.125 µg/mL (≈ 0.225 µM) | MIC ([2]; isolate No. 13, 3579): 0.25 µg/mL (≈ 0.449 µM) | MIC ([2]; isolate No. 14, 7484): 0.5 µg/mL (≈ 0.898 µM) | MIC ([2]; isolate No. 15, 3488): 0.5 µg/mL (≈ 0.898 µM) | MIC ([2]; isolate No. 16, 3276): 0.25 µg/mL (≈ 0.449 µM) | MIC ([2]; isolate No. 17, 3442): 1 µg/mL (≈ 1.8 µM) | MIC ([2]; isolate No. 18, 3316): 0.125 µg/mL (≈ 0.225 µM) | MIC ([2]; isolate No. 19, 3490): 0.25 µg/mL (≈ 0.449 µM) | MIC ([2]; isolate No. 20, 2491): 1 µg/mL (≈ 1.8 µM) | MIC50 ([2]; 20 clinical isolates, read-out: MIC50): 0.125 µg/mL (≈ 0.225 µM) | MIC90 ([2]; 20 clinical isolates, read-out: MIC90): 0.5 µg/mL (≈ 0.898 µM) | MIC50 [3]: 0.125 µg/mL (≈ 0.225 µM) | activity against SGM isolates (in words) [4]: MIC values above the highest concentration evaluated | MIC50 ([5]; read-out: MIC50): 0.25 µg/mL (≈ 0.449 µM) | MIC90 ([5]; read-out: MIC90): 0.5 µg/mL (≈ 0.898 µM)
